Data published in patent US5962502A, “Polyamidic acid derivatives with antigastrin activity, a method for their preparation, and their pharmaceutical use” (priority 1993, dated 1999).
pIC50: −log10 of the molar value.

Experiments:
central CCK-B receptor = biological target: T1, central CCK-B receptor (Cavia porcellus, UniProt H0VZC5); test: Inhibition of the binding of [3-H][N-methyl-N-leucine]CCK-8 to guinea-pig cortical membranes; conditions: for pIC50: 150 minutes at 25° C.
T1 construct: Cerebral cortices of male white guinea-pigs were thus used; from tissue; host or cells: cerebral cortex membranes of male white guinea-pigs
T1 sequence (H0VZC5 1-426): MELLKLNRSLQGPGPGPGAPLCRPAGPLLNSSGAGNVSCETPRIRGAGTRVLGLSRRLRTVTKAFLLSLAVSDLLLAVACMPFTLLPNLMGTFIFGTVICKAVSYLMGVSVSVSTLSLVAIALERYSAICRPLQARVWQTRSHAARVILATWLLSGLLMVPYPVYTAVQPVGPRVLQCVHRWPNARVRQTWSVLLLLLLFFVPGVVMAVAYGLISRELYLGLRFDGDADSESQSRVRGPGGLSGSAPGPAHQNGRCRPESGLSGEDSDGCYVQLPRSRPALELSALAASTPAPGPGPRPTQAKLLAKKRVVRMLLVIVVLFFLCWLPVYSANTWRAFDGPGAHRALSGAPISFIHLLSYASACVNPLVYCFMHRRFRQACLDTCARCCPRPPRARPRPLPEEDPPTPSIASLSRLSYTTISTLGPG
Experimental: The ability of the compounds of the invention to interact with the central CCK-B receptor was evaluated with the use of non-sulphated [3-H] […] 225 (3) (1990), 1278-1286].
Cerebral cortices of male white guinea-pigs were thus used, according to the method mentioned above, so as to obtain a membrane content corresponding to about 300 mcg of proteins/ml. The membranes were incubated together with the radioactive tracer and the compounds under test for 150 minutes at 25° C. After the supernatant had been discarded, the radioactivity associated with the pellet was determined with a liquid scintillator. The specific binding was determined as the difference between the binding in the absence and in the presence of 5.10^-6 M CCK-8.

[1] = biological target: T2, gastrin receptors or type-B cholecystokinin (CCK-B) receptors (Oryctolagus cuniculus, UniProt P46627); test: Inhibition of the gastrin-induced increase of cytosolic calcium in rabbit gastric mucous-membrane cells (Fura 2); assay type: cell-based; conditions: for Ratio IC50 Binding cortex / IC50 (gastric mucous cells): binding values taken from Table 3; for IC50, inhibition of the increase of cytosolic calcium: rabbit gastric mucous cells enriched in parietal cells, gastrin 5×10^-8; for CCK-B-antagonistic activity IC50 (II): data taken from Table 4 (rabbit gastric mucous cells), reprinted in Table 6
T2 construct: Rabbit gastric mucous-membrane cells were prepared by conventional techniques; endogenous in cells; host or cells: freshly isolated rabbit gastric mucosal cells, enriched by elutriation to about 70% parietal cells
T2 sequence (P46627 1-452): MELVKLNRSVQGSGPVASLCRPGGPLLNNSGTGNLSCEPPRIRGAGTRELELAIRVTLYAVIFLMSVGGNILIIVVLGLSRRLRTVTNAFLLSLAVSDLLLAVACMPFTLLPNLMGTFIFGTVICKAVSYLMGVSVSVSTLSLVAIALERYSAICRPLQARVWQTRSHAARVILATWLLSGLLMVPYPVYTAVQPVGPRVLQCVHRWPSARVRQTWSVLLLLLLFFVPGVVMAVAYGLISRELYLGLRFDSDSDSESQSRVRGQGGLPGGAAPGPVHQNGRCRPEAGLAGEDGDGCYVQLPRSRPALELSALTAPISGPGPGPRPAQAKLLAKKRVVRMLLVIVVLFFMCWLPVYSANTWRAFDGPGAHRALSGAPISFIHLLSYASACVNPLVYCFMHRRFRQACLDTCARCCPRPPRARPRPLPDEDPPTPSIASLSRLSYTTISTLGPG
Source text: The parietal cells of the gastric mucous membrane are responsible for the secretion of HCl. They have specific membrane receptors which can be activated by gastrin and which have been defined as gastrin receptors or type-B cholecystokinin (CCK-B) receptors. Since it has been observed that the activation of the CCK-B receptors by gastrin leads to an increase in the cytosolic levels of calcium ions, a technique involving the measurement of the increase in intracellular calcium induced by gastrin in the presence and in the absence of the compounds of the invention was used as an index of the antigastrin activity of the compounds. Rabbit gastric mucous-membrane cells were prepared by conventional techniques with the use of collagenase and pronase as digestive enzymes. The cellular preparation obtained by the enzymatic digestion was composed of parietal cells, zymogen cells and mucous-membrane cells. […] The cells were then washed and resuspended in a saline solution buffered with HEPES containing, in mM: […] Each measurement was carried out on cells in suspension (0.8×10^6 /ml) at a thermostatically-controlled temperature of 37° C. and with constant magnetic stirring. The fluorescence was recorded with the use of a spectrofluorometer. The operative wavelengths were 340/380 nm for excitation and 505 nm for emission. […] Biol. Chem. 260 (1985), 3440]. […] The results thus obtained for some compounds of the invention are given in Table 4, which also gives an index derived from the ratio between the peripheral antigastrin activity just described and the displacement activity found in the test on binding to the guinea-pig cortex receptors described above.

CCK-A = biological target: T3, CCK-A (Cavia porcellus, UniProt Q63931); test: Anti-CCK-A activity on guinea-pig gall bladder stimulated in vitro by CCK-8; conditions: for Ratio I/II (CCK-A IC50 / CCK-B IC50): gall bladder IC50 over gastric mucous cells IC50; for pIC50: guinea-pig gall bladder in vitro, CCK-8 10 ng/ml, read-out: CCK-A-antagonistic activity IC50 (I)
T3 construct: A longitudinal strip of guinea-pig gall-bladder was put in a bath for isolated organs; from tissue; host or cells: guinea-pig gall bladder longitudinal strip
T3 sequence (Q63931 1-430): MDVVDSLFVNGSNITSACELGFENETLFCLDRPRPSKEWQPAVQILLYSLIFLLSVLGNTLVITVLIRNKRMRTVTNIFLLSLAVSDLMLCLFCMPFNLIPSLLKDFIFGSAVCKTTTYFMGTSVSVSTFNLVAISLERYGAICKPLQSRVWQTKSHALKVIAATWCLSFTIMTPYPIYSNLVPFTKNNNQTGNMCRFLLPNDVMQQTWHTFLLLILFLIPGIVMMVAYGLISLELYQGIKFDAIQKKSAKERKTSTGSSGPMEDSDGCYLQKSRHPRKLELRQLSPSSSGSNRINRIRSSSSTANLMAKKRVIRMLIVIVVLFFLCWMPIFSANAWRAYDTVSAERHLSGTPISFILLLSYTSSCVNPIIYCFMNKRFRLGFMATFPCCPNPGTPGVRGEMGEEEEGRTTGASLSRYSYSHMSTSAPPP
Experimental: The experimental model used was guinea-pig gall bladder stimulated in vitro by CCK-8, with the use of lorglumide as the reference standard. A longitudinal strip of guinea-pig gall-bladder was put in a bath for isolated organs in the presence of Krebs buffer at a temperature of 32° C., with continuous oxygenation with an oxygen-CO2 mixture (95-[…]). The isometric contractions were detected by means of a force transducer and recorded.

Row | Structure (SMILES) | times more active than the corresponding diastereoisomer at the carbon atom (**) (central CCK-B receptor; binding, guinea-pig cortex) | pIC50 (central CCK-B receptor; guinea-pig cortical membranes) | Ratio IC50 Binding cortex / IC50 (gastric mucous cells) [1] | IC50, inhibition of the increase of cytosolic calcium [1] | Ratio I/II (CCK-A IC50 / CCK-B IC50) (CCK-A) | pIC50 (CCK-A) | CCK-B-antagonistic activity IC50 (II) [1] | inhibition of the binding of [N-methyl-N-leucine]CCK-8, result in words (central CCK-B receptor; guinea-pig cortical membranes) | IC50 order of magnitude, peripheral antigastrin activity ([1]; rabbit gastric mucous cells)
1 | CC1(C)CCC(NC(=O)[C@H](CCC(=O)O)NC(=O)CC[C@@H](NC(=O)c2cc(Cl)cc(Cl)c2)C(=O)N2CCC3(CCCC3)CC2)CC1 [Compound 34] | about twice | 6.14 | 10.4 | 0.07 µM |  |  |  |  | 
2 | CN(CC(=O)O)C(=O)CC[C@@H](NC(=O)c1cc(Cl)cc(Cl)c1)C(=O)N1CCC2(CCCC2)CC1 [Compound 2] |  | 6.21 | 0.7 | 1.50 µM |  |  |  |  | 
3 | Cc1cc(C(=O)O)ccc1NC(=O)CC[C@@H](NC(=O)c1cc(Cl)cc(Cl)c1)C(=O)N1CCC2(CCCC2)CC1 [Compound 52] |  | 5.56 | 1.2 | 2.33 µM |  |  |  |  | 
4 | O=C(CC[C@@H](NC(=O)c1cc(Cl)cc(Cl)c1)C(=O)N1CCC2(CCCC2)CC1)N[C@H](Cc1ccccn1)C(=O)O [Compound 27] |  | 6.82 | 0.6 | 0.23 µM | 14.8 | 5.47 | 0.23 µM |  | 
5 | CCCCCN(CCCCC)C(=O)C(CCC(=O)O)NC(=O)c1ccc(Cl)c(Cl)c1 (stereo not drawn) [R-lorglumide, reference compound] |  |  |  |  |  | 7.30 |  |  | 
6 | O=C(CC[C@@H](NC(=O)c1cc(Cl)cc(Cl)c1)C(=O)N1CCC2(CCCC2)CC1)NC(Cc1c[nH]c2ccccc12)C(=O)O (stereo partly drawn) [Compound 19] |  | 7.30 | 5.0 | 0.01 µM |  |  |  | potent inhibitors | nanomolar order of magnitude
7 | CC(C)CC(NC(=O)CC[C@@H](NC(=O)c1cc(Cl)cc(Cl)c1)C(=O)N1CCC2(CCCC2)CC1)C(=O)O (stereo partly drawn) [Compound 6] |  | 6.42 | 7.6 | 0.05 µM |  |  |  |  | 
8 | O=C(C[C@@H](NC(=O)c1cc(Cl)cc(Cl)c1)C(=O)N1CCC2(CCCC2)CC1)N[C@H](Cc1c[nH]c2ccccc12)C(=O)O [Compound 43] |  | 5.99 | 14.7 | 0.07 µM |  |  |  |  | 
9 | O=C(CC[C@@H](NC(=O)c1cc(Cl)cc(Cl)c1)C(=O)N1CCC2(CCCC2)CC1)N[C@H](COCc1ccccc1)C(=O)O [Compound 23] |  | 6.57 | 4.5 | 0.06 µM |  |  |  |  | 
10 | O=C(CC[C@@H](NC(=O)c1cc(Cl)cc(Cl)c1)C(=O)N1CCC2(CCCC2)CC1)N[C@H](CC1CCCCC1)C(=O)O [Compound 28] |  | 6.19 | 6.5 | 0.10 µM |  |  |  |  | 
11 | O=C(CC[C@@H](NC(=O)c1cc(Cl)cc(Cl)c1)C(=O)N1CCC2(CCCC2)CC1)N[C@H](Cc1ccc2ccccc2c1)C(=O)O [Compound 24] |  | 6.89 | 4.3 | 0.03 µM | 1527 | 4.34 | 0.03 µM |  | 
12 | CN(C(=O)CC[C@@H](NC(=O)c1cc(Cl)cc(Cl)c1)C(=O)N1CCC2(CCCC2)CC1)[C@@H](Cc1c[nH]c2ccccc12)C(=O)O [Compound 22] |  | 6.42 | 7.6 | 0.05 µM |  |  |  |  | 
13 | CC1(C)CCC(NC(=O)[C@@H](CCC(=O)O)NC(=O)CC[C@@H](NC(=O)c2cc(Cl)cc(Cl)c2)C(=O)N2CCC3(CCCC3)CC2)CC1 [Compound 35] |  | 5.77 | 14.2 | 0.12 µM |  |  |  |  | 
14 | CC(C)(C)CCNC(=O)[C@@H](CCC(=O)Nc1ccc(C(=O)O)cc1)NC(=O)c1cc(Cl)cc(Cl)c1 [Compound 53] |  | 5.19 |  | IN (IN (inactive) when the IC50 is >3.10^-5 M) |  |  |  |  | 
15 | O=C(CC[C@@H](NC(=O)c1cc(Cl)cc(Cl)c1)C(=O)N1CCC2(CCCC2)CC1)NC(Cc1ccccc1)C(=O)O (stereo partly drawn) [Compound 8] |  | 6.70 | 3.3 | 0.06 µM |  |  |  |  | 
16 | O=C(CC[C@@H](NC(=O)c1cc(Cl)cc(Cl)c1)C(=O)N1CCC2(CCCC2)CC1)NC(Cc1ccc(O)cc1)C(=O)O (stereo partly drawn) [Compound 18] |  | 6.49 | 1.6 | 0.20 µM |  |  |  |  | 
17 | CN(C(=O)CC[C@@H](NC(=O)c1cc(Cl)cc(Cl)c1)C(=O)N1CCC2(CCCC2)CC1)C(Cc1ccccc1)C(=O)O (stereo partly drawn) [Compound 11] |  | 6.66 | 3.1 | 0.07 µM |  |  |  |  | 
18 | O=C(CC[C@@H](NC(=O)c1cc(Cl)cc(Cl)c1)C(=O)N1CCC2(CCCC2)CC1)NC(CCc1ccccc1)C(=O)O (stereo partly drawn) [Compound 16] |  | 6.52 | 2.0 | 0.15 µM |  |  |  |  | 
19 | O=C(CC[C@@H](NC(=O)c1cc(Cl)cc(Cl)c1)C(=O)N1CCC2(CCCC2)CC1)Nc1ccc(C(=O)O)cc1 [Compound 47] |  | 5.76 | 4.5 | 0.38 µM |  |  |  |  | 
